Converted amounts (≈) assume the structure as drawn. Like-named read-outs stand apart in the source and are kept apart here.
Experiments:
[1] = Comparative test of solubility in water (Britton-Robinson buffer); settings: 25 °C
Protocol: 3-(3-(4-(Pyridin-2-yloxymethyl)-benzyl)-isoxazol-5-yl)-pyridin-2-ylamine described in Reference Example 1, which is the parent compound, and the compound of Example 1 were compared for solubility in a Britton-Robinson buffer (ionic strength: 0.3) at 25° C.

[2] = test system: C. albicans E81022 strain; assay: Experimental systemic candidal infection model in mice; type: in vivo; settings: for Mean Survival Days: tail vein at 0.5 and 9 hours after infection, observed until 14 days
Protocol: (1) Preparation of Fungal Inoculant
A standing culture of C. albicans E81022 strain was carried out for 24 hours at 35° C. in sabouraud dextrose agar medium (Difco), and the recovered fungal cells were suspended in sterile physiological saline (Otsuka Pharmaceutical). By counting the fungal number on cytometry plate, the suspension was diluted to 2×10^7 cells/mL with sterilized physiological saline to serve fungal inoculum.
The fungal inoculum was used in an amount of 0.2 mL to inoculate the mice in the tail vein (4×10^6 cells/mouse).
(3) Preparation of Agent Solution, and Treatment
The compound of Example 1 was dissolved in concentrations of 13 mg/mL and 3.25 mg/mL with a 50 mM glycine buffer with a pH of 10 (Wako Pure Chemicals), these solutions were then diluted 10 times with 5% glucose (Otsuka Pharmaceutical). At 0.5 and 9 hours after infection, 0.2 mL of the agent solution was administered into a tail vein of the mice. The agent concentrations were 2.5 and 10 mg/kg (calculated as the active form). The number of animals in one group was 5 animals.
The protective effect was determined by observing life/death until 14 days after infection and calculating the mean survival days. The protective effect on the systemic candidal infection was measured for the compound of Example 1 by the method described in section 2.

[3] = In vitro activity compared with the parent compound; settings: ratio to parent compound
[4] = in vivo, 0.4 mg/kg
Protocol: (§1) (1) Preparation of Administration Solution
(§2) (2) Administration, and Sampling of Blood and Plasma
Blood was collected from the radial cutaneous vein 0.25, 0.5, 1, 2, 4, and 6 hours after administration using a heparin-treated syringe. The blood samples were put into sampling tubes and stored under ice cooling, they were then centrifuged for 5 minutes at 10,500×g and at 4° C. The plasma thus obtained was accurately divided into 5 μL amounts and stored at −20° C. until they were analyzed.
(§3) (3) Plasma Concentration Measurement Method
Imipramine hydrochloride (Sigma) was dissolved in a mixed solution of acetonitrile and methanol (1:1) so that the concentration would be 0.5 μmol/L, to prepare an internal standard substance solution (IS solution). The plasma was melted, 200 μL of IS solution was then added thereto and mixed, and this was centrifuged (deproteinated) for 10 minutes at 1500×g and at 4° C., the supernatant was then analyzed by LC-MS (Waters).

[5] = Pharmacokinetic evaluation in mice; type: in vivo, ICR mice; settings: tail vein, 3 mg/kg, FIG. 15
Protocol: as §1, §2
Using five-week-old female ICR mice (Charles River Japan), with the number of mouse in one group being 2 mice, the compound according to the present invention and an active form thereof were administered into the tail vein in a dose of 3 mg/kg. The tail vein was punctured 0.25, 0.5, 1.5, 3, 5, and 8 hours after administration, and blood was collected with a heparin-treated pipette.
as §3

Compound	solubility ([1]; Britton-Robinson buffer, pH 5, aqueous buffer)	solubility ([1]; Britton-Robinson buffer, pH 7, aqueous buffer)	solubility ([1]; Britton-Robinson buffer, pH 8, aqueous buffer)	solubility ([1]; Britton-Robinson buffer, pH 9, aqueous buffer)	Mean Survival Days ([2]; 3.25 mg/kg (calculated as active form: 2.5 mg/kg))	Mean Survival Days ([2]; 13 mg/kg (calculated as active form: 10 mg/kg))	protective effect on the systemic candidal infection (survival versus untreated group) ([2]; life/death until 14 days after infection)	in vitro activity with respect to the parent compound (Reference Example 1) [3]	plasma concentration of the active form after administration of the compound of Example 1 [4]	plasma concentration of the compound of Example 1 [4]	solubility ([1]; pH 5, aqueous buffer)	solubility ([1]; pH 7, aqueous buffer)	solubility ([1]; pH 8, aqueous buffer)	solubility ([1]; pH 9, aqueous buffer)	plasma concentration of the active form after administration of the compound of Example 1 [5]	plasma concentration of the compound of Example 1 [5]
Nc1ncccc1-c1cc(Cc2ccc(COc3ccccn3)cc2)no1 [Parent compound, 3-(3-(4-(Pyridin-2-yloxymethyl)-benzyl)-isoxazol-5-yl)-pyridin-2-ylamine, reference compound]	< 100 µg/mL	< 100 µg/mL	< 100 µg/mL	< 100 µg/mL												
Nc1c(-c2cc(Cc3ccc(COc4ccccn4)cc3)no2)ccc[n+]1COP(=O)([O-])O [Example 1, 2-Amino-1-((phosphonoxy)methyl)-3-(3-((4-((2-pyridinyloxy)methyl)phenyl)methyl)-5-isoxazolyl)-pyridinium]					7.4 days	12.8 days	survived for a longer time as compared to the untreated group	1/100	rose quickly	under the detection limit	1900 µg/mL (≈ 4.06 mM)	10500 µg/mL (≈ 22.4 mM)	16400 µg/mL (≈ 35 mM)	> 21100 µg/mL	increased quickly from immediately after administration	decreased quickly after administration
